Source: patent US20210251218A1, “BIO-HERBICIDE BASED ON ESSENTIAL OIL” (Université de Liège, priority 2018, published 2021)

System: Bryophyte (adult stage)
Test: Essay 1: post-emergence activity on Bryophyte
Type: in vivo
Conditions: spraying 100 ml/m^2; 7 days after treatment; score 0 = healthy plant, 6 = dead plant; FIG. 3
Description: In order to assess the post-emergence activity of compositions according to the invention on Bryophyte (adult stage), different compositions according to the invention (HE1 and HE2—see Table 3) were tested by spraying (100 ml/m^2) on Bryophytes (adult stage). Pelargonic acid at a concentration of 30 g/L (PA) (Compo®) was used as a positive control and a composition without the active substance (essential oil) (SSA) was also tested. [table] For Bryophytes, it is recognized that the score of 0 represents a healthy and undamaged plant while a score of 6 represents a dead plant. These scores were determined 7 days after treatment with the different compositions.

**Q.** How did the toxicity score turn out when `CCCCCCCCC(=O)O` [pelargonic acid] was run?
**A.** Its toxicity score is 6.
